In ChEMBL document CHEMBL1124894, “Synthesis and quantitative structure-activity relationships of diclofenac analogues” (J Med Chem, 1990):

Key:
[1] = Dissociation constant (pKa); assay type: physicochemical
[2] = Partition coefficient (logD7.4); conditions: octanol/water, pH 7.4
[3] = organism: Rattus norvegicus
Description: Inhibition of inflammatory hind paw edema, induced by Mycobacterium butyricum in rats; ED40 in umol/kg po

[4] = target: T1, Cyclooxygenase (Bos taurus, UniProt O62664+O62698)
T1 sequence (O62664 whole entry): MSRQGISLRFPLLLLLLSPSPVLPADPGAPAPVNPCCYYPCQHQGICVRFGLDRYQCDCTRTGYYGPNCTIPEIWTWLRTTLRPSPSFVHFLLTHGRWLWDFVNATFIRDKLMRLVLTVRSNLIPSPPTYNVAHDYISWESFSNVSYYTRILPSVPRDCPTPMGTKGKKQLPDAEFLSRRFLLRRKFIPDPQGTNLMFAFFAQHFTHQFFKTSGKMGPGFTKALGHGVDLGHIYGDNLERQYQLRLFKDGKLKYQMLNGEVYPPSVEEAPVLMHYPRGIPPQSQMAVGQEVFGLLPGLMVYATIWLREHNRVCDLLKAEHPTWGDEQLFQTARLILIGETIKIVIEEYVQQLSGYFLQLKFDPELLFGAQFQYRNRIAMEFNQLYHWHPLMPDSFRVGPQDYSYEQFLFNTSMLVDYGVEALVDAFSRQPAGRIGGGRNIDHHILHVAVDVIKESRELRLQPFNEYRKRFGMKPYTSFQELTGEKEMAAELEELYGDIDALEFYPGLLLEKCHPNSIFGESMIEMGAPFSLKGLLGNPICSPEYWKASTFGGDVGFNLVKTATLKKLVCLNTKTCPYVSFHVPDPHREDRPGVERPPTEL
T1 sequence (O62698 whole entry): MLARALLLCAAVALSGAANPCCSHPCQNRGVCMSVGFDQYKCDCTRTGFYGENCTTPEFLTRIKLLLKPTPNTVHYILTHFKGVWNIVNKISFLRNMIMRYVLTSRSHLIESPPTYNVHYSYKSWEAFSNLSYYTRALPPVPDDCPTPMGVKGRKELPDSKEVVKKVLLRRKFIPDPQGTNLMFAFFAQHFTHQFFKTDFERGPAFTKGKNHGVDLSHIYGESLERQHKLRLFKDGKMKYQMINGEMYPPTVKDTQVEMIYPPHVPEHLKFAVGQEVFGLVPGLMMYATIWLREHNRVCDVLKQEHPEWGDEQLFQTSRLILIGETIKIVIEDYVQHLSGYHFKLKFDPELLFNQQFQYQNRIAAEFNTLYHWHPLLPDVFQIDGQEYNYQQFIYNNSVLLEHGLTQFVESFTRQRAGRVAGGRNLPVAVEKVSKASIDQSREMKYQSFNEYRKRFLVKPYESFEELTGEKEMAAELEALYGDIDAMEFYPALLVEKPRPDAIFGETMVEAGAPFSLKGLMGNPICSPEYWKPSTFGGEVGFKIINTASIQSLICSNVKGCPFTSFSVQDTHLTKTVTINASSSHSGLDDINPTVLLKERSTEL
Description: In vitro inhibition of bovine prostaglandin G/H synthase, using bovine seminal vesicle microsomal preparations; IC50 in umol/L

Structure (SMILES)	pKa [1]	logD [2]	Log 1/ED40 [3]	log IC50 [4]
COc1ccc(Cl)c(Nc2ccccc2CC(=O)O)c1Cl	3.95	1.18	-0.96	1.04
O=C([O-])Cc1ccccc1Nc1c(Cl)cccc1Br.[Na+]	4.2	1.44	-0.14	0.28
O=C(O)Cc1ccccc1Nc1cccc(Cl)c1Cl	4.2	1.66	–	1
O=C(O)Cc1c(Br)cccc1Nc1c(Cl)cccc1Cl	–	1.87	-3.43	1.18
COc1cc(Cl)c(Nc2ccccc2CC(=O)O)c(Cl)c1	4.2	1.24	-0.49	0
O=C([O-])Cc1ccccc1Nc1c(F)cccc1Cl.[Na+]	–	0.56	-0.8	1.75
O=C([O-])Cc1ccccc1Nc1c(F)cccc1F.[Na+]	4.09	0.26	-2.24	2.36
O=C([O-])Cc1c(O)cccc1Nc1c(Cl)cccc1Cl.[Na+]	4.48	1.73	–	2.33
O=C(O)Cc1ccccc1Nc1ccccc1	4.1	0.19	-2.94	2.46
O=C(O)Cc1ccccc1Nc1ccc(Cl)cc1Cl	–	1.33	-1.23	1.85
O=C(O)Cc1ccccc1Nc1ccccc1Cl	–	0.91	-1.76	2.31
O=C(O)Cc1ccccc1Nc1c(Cl)cc(O)cc1Cl [4'-HYDROXY-DICLOFENAC]	4.4	0.7	-0.98	2.15
O=C([O-])Cc1ccccc1Nc1ccc(F)cc1F.[Na+]	–	0.55	-2.85	2.01
O=C(O)Cc1ccccc1Nc1cc(Cl)ccc1Cl	4.1	1.64	-1.01	2
Cc1cccc(C)c1Nc1ccccc1CC(=O)O	4.07	1.21	-0.29	0.78
O=C([O-])Cc1cc(Cl)ccc1Nc1c(Cl)cccc1Cl.[Na+]	–	1.97	0.07	0.1
O=C([O-])Cc1cc(F)ccc1Nc1c(Cl)cc(F)cc1Cl.[Na+]	–	1.62	0.25	0.25
O=C([O-])Cc1cc(F)ccc1Nc1c(Cl)cccc1Cl.[Na+]	4.02	1.48	0.05	0.13

Structure (SMILES)	pKa [1]	logD [2]	Log 1/ED40 [3]	log IC50 [4]
COc1cc(Cl)c(Nc2ccccc2CC(=O)O)c(Cl)c1O [3'-HYDROXY-4'-METHOXY-DICLOFENAC]	4.13	0.25	-2.47	2.47
Cc1cccc(Cl)c1Nc1ccccc1CC(=O)O	4.2	1.17	-0.74	0
CCc1cccc(CC)c1Nc1ccccc1CC(=O)O	–	1.91	-1.55	1.83
COc1c(O)cc(Cl)c(Nc2ccccc2CC(=O)O)c1Cl	–	0.51	-2.47	1.86
Cc1cc(C)c(C)c(Nc2ccc(Cl)cc2CC(=O)O)c1C	–	2.93	-1.2	1.82
Cc1cccc(Nc2ccccc2CC(=O)O)c1C	–	1.03	-1.59	0.3
Cc1c(Cl)cccc1Nc1ccccc1CC(=O)O	4.3	1.54	-0.86	1.04
O=C(O)Cc1ccccc1Nc1ccc(Cl)c(Cl)c1	4.3	1.8	-2.53	2.15
Cc1cccc(Nc2ccccc2CC(=O)O)c1Cl	–	1.59	-0.26	1.3
COc1ccc2c(c1)c(CC(=O)O)c(C)n2C(=O)c1ccc(Cl)cc1 [INDOMETHACIN]	–	1	–	–
O=C([O-])Cc1ccccc1Nc1c(Cl)cc(F)cc1Cl.[Na+]	–	1.27	-0.47	0.05
O=C(O)Cc1cc(O)ccc1Nc1c(Cl)cc(O)cc1Cl [4',5-DIHYDROXY-DICLOFENAC]	–	0.27	-2.78	3.04
Cc1cc(C)c(C)c(Nc2ccccc2CC(=O)O)c1C	4.2	1.95	-1.25	0.78
O=C(O)Cc1ccccc1Nc1c(Cl)ccc(O)c1Cl [3'-HYDROXY-DICLOFENAC]	–	0.72	-1.51	1
Cc1ccc(Cl)c(Nc2ccccc2CC(=O)[O-])c1Cl.[Na+]	–	–	-0.65	–
O=C(O)Cc1ccccc1Nc1cc(Cl)cc(Cl)c1	4.31	1.98	-2.23	1.9
O=C(O)Cc1cc(O)ccc1Nc1c(Cl)cccc1Cl [5-HYDROXY-DICLOFENAC]	4.22	0.76	-0.98	3.35
O=C(O)Cc1ccccc1Nc1c(Cl)cccc1I	4.24	1.64	-0.11	0.3
